Experimental data from the supplement of paper PMC10307832.

Key:
Assay in all cases: relative viability (nuclei count vs DMSO), 5 days (fraction); higher = more cells survive
LCLC-97TM1 = tested on: LCLC-97TM1
In short: (§1)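 Each reported value is a median over duplicate plates. It expresses relative viability: treated-well nuclei count divided by vehicle-well nuclei count. Lung cancer cell lines in 1536-well plates were dosed by pin tool a day after seeding, alone with one drug or with a fixed anchor-drug dose plus five library-drug doses (not always all listed) in √10 steps, and nuclei were counted after 5 days.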

HARA = tested on: HARA
In short: as §1

EMC-BAC-2 = tested on: EMC-BAC-2
In short: as §1

NCI-H1915 = tested on: NCI-H1915
In short: as §1

PC-3 [JPC-3] = tested on: PC-3 [JPC-3]
In short: as §1

NCI-H23 = tested on: NCI-H23
In short: as §1

NCI-H1437 = tested on: NCI-H1437
In short: as §1

NCI-H322M = tested on: NCI-H322M
In short: as §1

NCI-H1793 = tested on: NCI-H1793
In short: as §1

HCC-827 = tested on: HCC-827
In short: as §1

EKVX = tested on: EKVX
In short: as §1

HCC-15 = tested on: HCC-15
In short: as §1

NCI-H2126 = tested on: NCI-H2126
In short: as §1

NCI-H1944 = tested on: NCI-H1944
In short: as §1

NCI-H441 = tested on: NCI-H441
In short: as §1

NCI-H661 = tested on: NCI-H661
In short: as §1

LU99A = tested on: LU99A
In short: as §1

LC-2-ad = tested on: LC-2-ad
In short: as §1

SK-LU-1 = tested on: SK-LU-1
In short: as §1

H3255 = tested on: H3255
In short: as §1

NCI-H460 = tested on: NCI-H460
In short: as §1

ChaGo-K-1 = tested on: ChaGo-K-1
In short: as §1

Cc1cnc(-c2cnc(NCCNc3ccc(C#N)cn3)nc2-c2ccc(Cl)cc2Cl)[nH]1 + Cc1cc(Nc2cc(N3CCN(C)CC3)nc(Sc3ccc(NC(=O)C4CC4)cc3)n2)n[nH]1 [Tozasertib] (partner 0.1 µM)
relative viability (LCLC-97TM1; first compound 0.08 µM): 0.224 | relative viability (LCLC-97TM1; first compound 0.8 µM): 0.171 | relative viability (LCLC-97TM1; first compound 2.53 µM): 0.223 | relative viability (HARA; first compound 0.08 µM): 0.116 | relative viability (HARA; first compound 0.253 µM): 0.113 | relative viability (HARA; first compound 0.8 µM): 0.116 | relative viability (HARA; first compound 2.53 µM): 0.1 | relative viability (EMC-BAC-2; first compound 0.08 µM): 0.313 | relative viability (EMC-BAC-2; first compound 0.253 µM): 0.261 | relative viability (EMC-BAC-2; first compound 0.8 µM): 0.252 | relative viability (EMC-BAC-2; first compound 2.53 µM): 0.273 | relative viability (NCI-H1915; first compound 0.08 µM): 0.404 | relative viability (NCI-H1915; first compound 0.253 µM): 0.322 | relative viability (NCI-H1915; first compound 0.8 µM): 0.342 | relative viability (NCI-H1915; first compound 2.53 µM): 0.374 | relative viability (PC-3 [JPC-3]; first compound 0.08 µM): 0.872 | relative viability (PC-3 [JPC-3]; first compound 0.253 µM): 0.849 | relative viability (PC-3 [JPC-3]; first compound 0.8 µM): 0.819 | relative viability (PC-3 [JPC-3]; first compound 2.53 µM): 0.719 | relative viability (NCI-H23; first compound 0.08 µM): 0.383 | relative viability (NCI-H23; first compound 0.253 µM): 0.26 | relative viability (NCI-H23; first compound 0.8 µM): 0.298 | relative viability (NCI-H23; first compound 2.53 µM): 0.259 | relative viability (NCI-H1437; first compound 0.08 µM): 0.456 | relative viability (NCI-H1437; first compound 0.253 µM): 0.444 | relative viability (NCI-H1437; first compound 0.8 µM): 0.431 | relative viability (NCI-H1437; first compound 2.53 µM): 0.371 | relative viability (NCI-H322M; first compound 0.08 µM): 0.51 | relative viability (NCI-H322M; first compound 0.253 µM): 0.464 | relative viability (NCI-H322M; first compound 0.8 µM): 0.438 | relative viability (NCI-H322M; first compound 2.53 µM): 0.466 | relative viability (NCI-H1793; first compound 0.08 µM): 0.347 | relative viability (NCI-H1793; first compound 0.253 µM): 0.276 | relative viability (NCI-H1793; first compound 0.8 µM): 0.257 | relative viability (NCI-H1793; first compound 2.53 µM): 0.182 | relative viability (HCC-827; first compound 0.08 µM): 0.432 | relative viability (HCC-827; first compound 0.8 µM): 0.44 | relative viability (HCC-827; first compound 2.53 µM): 0.407 | relative viability (EKVX; first compound 0.08 µM): 0.408 | relative viability (EKVX; first compound 0.253 µM): 0.357 | relative viability (EKVX; first compound 0.8 µM): 0.347 | relative viability (EKVX; first compound 2.53 µM): 0.335 | relative viability (HCC-15; first compound 0.08 µM): 0.346 | relative viability (HCC-15; first compound 0.253 µM): 0.373 | relative viability (HCC-15; first compound 0.8 µM): 0.473 | relative viability (HCC-15; first compound 2.53 µM): 0.279 | relative viability (NCI-H2126; first compound 0.08 µM): 1.02 | relative viability (NCI-H2126; first compound 0.253 µM): 0.802 | relative viability (NCI-H2126; first compound 0.8 µM): 0.844 | relative viability (NCI-H2126; first compound 2.53 µM): 0.837 | relative viability (NCI-H1944; first compound 0.08 µM): 0.253 | relative viability (NCI-H1944; first compound 0.8 µM): 0.254 | relative viability (NCI-H1944; first compound 2.53 µM): 0.252 | relative viability (NCI-H441; first compound 0.08 µM): 0.775 | relative viability (NCI-H441; first compound 0.253 µM): 0.654 | relative viability (NCI-H441; first compound 0.8 µM): 0.602 | relative viability (NCI-H441; first compound 2.53 µM): 0.405 | relative viability (NCI-H661; first compound 0.08 µM): 0.361 | relative viability (NCI-H661; first compound 0.253 µM): 0.378 | relative viability (NCI-H661; first compound 0.8 µM): 0.363 | relative viability (NCI-H661; first compound 2.53 µM): 0.341 | relative viability (LU99A; first compound 0.08 µM): 0.257 | relative viability (LU99A; first compound 0.253 µM): 0.301 | relative viability (LU99A; first compound 0.8 µM): 0.256 | relative viability (LU99A; first compound 2.53 µM): 0.243 | relative viability (LC-2-ad; first compound 0.08 µM): 0.439 | relative viability (LC-2-ad; first compound 0.253 µM): 0.392 | relative viability (LC-2-ad; first compound 2.53 µM): 0.477 | relative viability (SK-LU-1; first compound 0.08 µM): 0.314 | relative viability (SK-LU-1; first compound 0.253 µM): 0.348 | relative viability (SK-LU-1; first compound 0.8 µM): 0.426 | relative viability (SK-LU-1; first compound 2.53 µM): 0.535 | relative viability (H3255; first compound 0.08 µM): 0.951 | relative viability (H3255; first compound 0.253 µM): 0.511 | relative viability (H3255; first compound 0.8 µM): 0.593 | relative viability (H3255; first compound 2.53 µM): 0.65 | relative viability (NCI-H460; first compound 0.08 µM): 0.48 | relative viability (NCI-H460; first compound 0.253 µM): 0.152 | relative viability (NCI-H460; first compound 0.8 µM): 0.101 | relative viability (NCI-H460; first compound 2.53 µM): 0.137 | relative viability (ChaGo-K-1; first compound 0.08 µM): 0.241 | relative viability (ChaGo-K-1; first compound 0.253 µM): 0.215 | relative viability (ChaGo-K-1; first compound 0.8 µM): 0.231 | relative viability (ChaGo-K-1; first compound 2.53 µM): 0.22
